Assays:
[1] = 9-mo-old, iron-replete children, cited from earlier work; for iron bioavailability from inhibitory WG cereal: PA:Fe 2.2:1, no added AA
[2] = iron-deficient infants; AA at a molar ratio of 2:1; cited from earlier work
[3] = anemic infants; 5 mg/kg of Fe daily for 28 d; cited from earlier work
[4] = Fractional iron absorption
[5] = adult men; without AA; consumed in 1 or separate whole-maize porridge meals; cited from earlier work

Row | Molecule | iron bioavailability from inhibitory WG cereal [1] [%] | iron bioavailability from vegetable puree [1] [%] | bioavailability of iron as FeSO4 from refined wheat-based infant cereal, with dephytinization [2] [%] | bioavailability of iron as FeSO4 from refined wheat-based infant cereal, without dephytinization [2] [%] | hemoglobin change [3] | bioavailability of iron when consumed in WG-oat cereal ([4]; WG-oat cereal with AA, nonsignificant difference between FeBG and Fefum) [%] | iron bioavailability in the noninhibitory reference meal ([4]; refined wheat reference meal with AA) [%] | iron bioavailability, times higher than FeSO4 [5]
1 | ferrous sulfate [FeSO4] | 3.8 | 9.9 | 8.5 | 8.7 | significant hemoglobin increases | – | – | –
2 | O=C([O-])/C=C/C(=O)[O-].[Fe+2] [Fefum, ferrous fumarate] | – | – | – | – | – | 9.2 | 12.1 | –
3 | NCC(=O)[O-].NCC(=O)[O-].[Fe+2] [FeBG, ferrous bisglycinate] | 5.2 | 9 | – | – | significant hemoglobin increases | – | – | 4−6 times

— paper PMC8891185 (The Journal of Nutrition, 2021)
